In data set [1] the test system is planktonic P. aeruginosa. Kind of data set: Bactericidal assay against planktonic P. aeruginosa (4 h, static, MBC4h = 3-log reduction). It counts as cell-based, Pseudomonas aeruginosa. The following applies: for MBC: Pseudomonas aeruginosa. On the procedure: Nitric oxide may be an efficient antibacterial agent. The antibacterial activity of the NO-releasing CD derivatives was evaluated against Gram-negative P. aeruginosa, a model pathogen associated with serious medical infections (e.g., traumatic burns, cystic fibrosis). Pseudomonas aeruginosa is a Gram-negative pathogen. Bacterial viability assays were performed under static conditions. Minimum bactericidal concentrations over 4 hours exposure (MBC4h) were used to quantify their bactericidal activity, being required to eliminate bacteria viability by 3 logs (e.g., 99.9% killing). The total NO amount delivered by NO-releasing CD derivatives over this period was also calculated to quantitatively evaluate the required NO dose to achieve bactericidal activity.
The TSA bacterial stock of P. aeruginosa colony was cultured in 3 mL of TSB overnight (around 16 hours) at 37° C. A 1000 μL aliquot of the resulting suspension was added into 15 mL of fresh TSB and incubated at 37° C. for another 2 hours, to achieve a concentration of 10^8 colony forming units per mL (CFU/mL, confirmed by the OD600). The bacteria was collected by centrifugation, resuspended in sterile PBS, and diluted to 10^6 CFU/mL. The antibacterial efficacy of both non-NO-releasing and NO-releasing CD derivatives against P. aeruginosa was evaluated under static condition over 4 hours at 37° C. Blanks (untreated cells) were incubated in each experiment to ensure the bacteria remained viable at 10^6 CFU/mL over 4 hour assay. 100 μL aliquots of blank, control or NO-releasing CD derivatives treated bacteria suspensions were shifted, diluted 10-fold in sterile H2O and plated on TSA plates using an Eddy Jet spiral plater (IUL; Farmingdale, N.Y.), followed by incubation overnight at 37° C. Bacterial viability was evaluated via total colony count on the TSA plates by using a Flash & Go colony counter (IUL; Farmingdale, N.Y.). […] Of note, the limit of detection for this selected plate counting method is 2.5×10^3 CFU/mL.
Additional testing was done to determine the antibacterial efficacy and toxicity of DETA, DETA/NO (DETA functionalized with NO), and DETA/NO mixed with CD (at ratios of 1:1 or 1:2) as compared to CD-DETA or CD-DETA/NO (CD-DETA functionalized with NO). The same conditions as disclosed above for antibacterial testing and cytotoxicity was used.

The nature of data set [2]: NO-release properties of NO-releasing cyclodextrins at pH 5.4 and pH 7.4 (Table 5). Format: physicochemical. On the procedure: Additional studies were carried out to investigate NO-release properties from β-cyclodextrin under conditions consistent with healthy tissue (pH 7.4) and those of tumor microenvironments (pH 5.4). These studies also evaluated the role of NO-release properties on anticancer action using A549 lung cancer cells with two modifications to vary release kinetics (mono- and hepta-substitution to vary NO totals). This study also evaluated the efficacy of a combined therapeutic (a nitric oxide releasing CD with DOX) as compared to each therapeutic agent individually. […] Several different functionalized CDs were prepared as shown in Table 5 and using techniques as described elsewhere herein. […] All modifications (PA, DETA, and DETA7) except for PA7 have t1/2 under 10 min.

Data set [3] concerns A549 human lung carcinoma cells. The data set can be described thus: Anticancer action against A549 cells, 24 h MTS assay. Format: cell-based. To be noted: A549, 24 h MTS; error = 95% confidence interval for IC50. On the procedure: Anticancer potential was evaluated against A549 human lung carcinoma cells using an MTS assay. […] All cell work performed in RPMI media and materials corrected for pH using 0.1 M HCl. […]

In data set [4] the test system is L929 mouse fibroblasts. Kind of data set: In-vitro cytotoxicity, L929 mouse fibroblasts, MTS, 4 h exposure. It counts as cell-based. On the procedure: L929 mouse fibroblasts were cultured in DMEM supplemented with 10% v/v fetal bovine serum (FBS) and 1 wt % penicillin/streptomycin, and incubated in 5% v/v CO2 under humidified conditions at 37° C. After reaching confluency (80%), the cells were trypsinized, seeded onto tissue-culture treated polystyrene 96-well plates at a density of 1×10^4 cells/mL, and incubated at 37° C. for 24 hours. The supernatant was then aspirated and replaced with 100 μL of fresh growth medium containing various concentrations of both unmodified control and NO-releasing CD derivatives to each well. After incubation at 37° C. for 4 hours, the supernatant was aspirated and 100 μL of a mixture of DMEM/MTS/PMS (105/20/1, v/v/v) was added to each well. The absorbance of the resulting colored solutions over 3 hours incubation was quantified by using a ThermoScientific Multiskan EX plate reader (Waltham, Mass.) at 490 nm. The mixture of DMEM/MTS/PMS and untreated cells were used as a blank and control, respectively. Cell viability was calculated according to the following formula: […]
Despite effective bactericidal capability, the applicability of new antibacterial agents is also determined by their toxicity to mammalian cells. With respect to therapeutic potential, toxicity to mammalian cells is an important factor in the development of any new antibacterial agent. The cytotoxicity of CD-NONOates was evaluated by exposing mouse fibroblast cells to various concentrations (0˜2000 μg/mL) of both control and NO-releasing CD derivatives over a 4 hour exposure. […] Both CD-PA7/NO and CD-MA7/NO were tolerable to the mouse fibroblasts even at 2000 μg/mL (63% and 73% cell viability for CD-PA7/NO and CD-MA7/NO, respectively). […] The behavior is in part related to the effective delivery of NO induced by the fast cellular uptake of positively charged macromolecular systems. This behavior was also ascribed to the large amounts of terminal primary amines groups.

[5] abbreviates: 4 h exposure, 3-log reduction in viability.

Molecules are shown by their SMILES. Converted amounts (≈) assume the structure as drawn. Read-outs that look alike come from different tables or passages of the source.

Consider `NCCNCCNCC1OC2OC3C(CO)OC(OC4C(CO)OC(OC5C(CO)OC(OC6C(CO)OC(OC7C(CO)OC(OC8C(CO)OC(OC1C(O)C2O)C(O)C8O)C(O)C7O)C(O)C6O)C(O)C5O)C(O)C4O)C(O)C3O` (stereo not drawn) [CD-DETA], for which the MBC4 h in data set [1] (4 h exposure) amounted to 8000 µg/mL. Besides, in data set [1] (setting [5]), the MBC4 h came out at 8000 µg/mL. For the same molecule, in data set [2] (pH 5.4), the “[NO]max” value is listed as 32000 ± 2500 ppb mg^−1, the “[NO]t” value was 0.74 ± 0.04 µmol/mg and the td is listed as 14.6 ± 0.8 h. Besides, in data set [2] (pH 7.4), the “[NO]max” value is listed as 900 ± 100 ppb mg^−1, the “[NO]t” value came out at 0.68 ± 0.03 µmol/mg and the td is listed as 20.2 ± 0.6 h. Moreover, the NO dose in data set [3] turned out to be 1.07 ± 0.06 µmol/mL. This molecule came in with an L929 viability in data set [4] (up to 2 mg/mL) above 60%.

For `CCCNCC1OC2OC3C(CO)OC(OC4C(CO)OC(OC5C(CO)OC(OC6C(CO)OC(OC7C(CO)OC(OC8C(CO)OC(OC1C(O)C2O)C(O)C8O)C(O)C7O)C(O)C6O)C(O)C5O)C(O)C4O)C(O)C3O` (stereo not drawn) [CD-PA], in data set [2] (pH 5.4), the “[NO]max” value amounted to 25100 ± 5700 ppb mg^−1, the “[NO]t” value turned out to be 0.56 ± 0.09 µmol/mg and the td is 5.0 ± 0.8 h. For the same molecule, in data set [2] (pH 7.4), the “[NO]max” value turned out to be 2100 ± 300 ppb mg^−1, the “[NO]t” value worked out at 0.60 ± 0.07 µmol/mg and the td was determined as 17.0 ± 1.0 h. The molecule also displayed an NO dose in data set [3] of 0.97 ± 0.16 µmol/mL.

For `NCCNCCN` [DETA, diethylenetriamine], the “bactericidal efficacy (in words)” value in data set [1] (4 h incubation) is listed as “highly antimicrobial”. Also, the MBC in data set [1] (4 h exposure, 3-log reduction in viability, read-out: MBC4 h) came out at 250 µg/mL (≈ 2420 µM). For the same molecule, the “concentration at which toxic” value in data set [4] (FIG. 21e) worked out at 4000 µg/mL.

Turning to `NCCN(CCN)/[N+]([O-])=N/O` [DETA/NO], the MBC4 h in data set [1] (setting [5]) is 1000 µg/mL.

`CC(CN1c2ccccc2Sc2ccccc21)N(C)C` (stereo not drawn) [PM, promethazine]: in data set [1] (concentration of PM, PM and CD derivative 1:1 molar, read-out: PM MBC4 h), the MBC is 100 µg/mL (≈ 352 µM). Further, the MBC4h for PM in data set [1] (concentration of PM) came to 100 µg/mL. Further, the “cytotoxicity at MBC4h concentration (in words)” value in data set [4] is listed as “toxic to the vast majority of the mouse fibroblast cells”.

(Values after patent US11026965B2, “Nitric oxide-releasing cyclodextrins as biodegradable antibacterial scaffolds and methods pertaining thereto” (The University of North Carolina at Chapel Hill, priority 2018, dated 2021).)
